This passage reports inhibition and Ki results from patent US9663464B2, “Carbazole derivatives acting on 5-HT7 receptor” (KOREA INSTITUTE OF SCIENCE AND TECHNOLOGY, priority 2015, dated 2017).

In one experiment the target is 5-HT6 (Homo sapiens, UniProt P50406). The experiment is described as follows: 5-HT6 receptor inhibition/binding (Tables 2-3). As to conditions: 10 μM.
For another experiment, the target named is T1, 5-HT1A (Homo sapiens, UniProt P08908).
T1 sequence (P08908 1-422): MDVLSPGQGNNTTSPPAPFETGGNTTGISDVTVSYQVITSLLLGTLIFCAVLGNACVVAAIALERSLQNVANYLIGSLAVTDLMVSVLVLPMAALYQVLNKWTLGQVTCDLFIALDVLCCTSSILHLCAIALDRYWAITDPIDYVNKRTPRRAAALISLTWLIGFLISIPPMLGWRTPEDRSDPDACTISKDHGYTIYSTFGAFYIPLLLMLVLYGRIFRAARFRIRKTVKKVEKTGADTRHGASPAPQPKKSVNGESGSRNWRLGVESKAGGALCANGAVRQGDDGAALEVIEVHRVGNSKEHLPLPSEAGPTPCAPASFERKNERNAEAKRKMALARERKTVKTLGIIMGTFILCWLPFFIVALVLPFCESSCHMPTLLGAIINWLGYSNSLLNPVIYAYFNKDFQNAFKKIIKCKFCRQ
The experiment is described as follows: 5-HT1A receptor inhibition (Table 3). In kind it is binding.

The target in experiment [1] is T2, human gene recombinant 5-HT7 receptor expressed in CHO cells (Homo sapiens, UniProt P34969).
T2 construct: expressed in transfected cells; host or cells: CHO cells (membrane preparation)
T2 sequence (P34969 whole entry): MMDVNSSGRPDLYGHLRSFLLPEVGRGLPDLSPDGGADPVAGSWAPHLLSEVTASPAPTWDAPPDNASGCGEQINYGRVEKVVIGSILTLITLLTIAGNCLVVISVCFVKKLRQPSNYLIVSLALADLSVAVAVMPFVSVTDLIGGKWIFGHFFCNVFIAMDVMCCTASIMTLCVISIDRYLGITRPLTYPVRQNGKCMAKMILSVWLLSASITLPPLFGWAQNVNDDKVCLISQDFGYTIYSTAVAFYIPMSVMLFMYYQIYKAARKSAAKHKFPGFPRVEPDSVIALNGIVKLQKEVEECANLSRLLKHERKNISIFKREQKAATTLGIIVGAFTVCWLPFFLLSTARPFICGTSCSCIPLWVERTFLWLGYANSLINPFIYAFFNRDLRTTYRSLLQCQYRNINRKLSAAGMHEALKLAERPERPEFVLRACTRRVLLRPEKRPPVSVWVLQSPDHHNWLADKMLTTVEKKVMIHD
Kind of experiment: Binding affinity for the 5-HT7 serotonin receptor ([3H]LSD radioligand). Here is the method:
In this example, the human gene recombinant 5-HT7 receptor expressed in CHO cells was used. 1 nM [^3H]LSD, 5-HT7 receptor membrane (15 μg/well), a test drug, 10 mM MgCl2, 50 mM Tris-HCl buffer (pH 7.4) containing 0.1 mM EDTA, etc. were added to a vessel until the final volume reached 0.25 ml. The test drug was used at various concentrations. The mixture was cultured at 25° C. for 90 min. The culture was rapidly filtered through a Whatman GF/C glass fiber filter, which had been previously wetted with 0.3% polyethyleneimine using a Brandel harvester, to quench the reaction. The reaction mixture was washed with cold 50 mM Tris-HCl buffer. The filter was covered with MeltiLex, sealed in a sample bag, and dried in an oven. Counting was performed using MicroBeta (Wallac) and nonspecific binding was measured in the presence of […]. The K value of the test drug was obtained from nonlinear regression analysis (GraphPad Prism Program, San Diego, USA) of isotherms obtained by repeatedly performing the experiment on the drug at 10-11 stage concentrations in two test tubes (each twice).
The % inhibition values of the inventive compounds having different Y structures at a concentration of 10 μM against the 5-HT7 serotonin receptor were measured. Further, the binding affinity (Ki) values of the inventive compounds having different Y structures at a concentration of 10 μM for the 5-HT7 serotonin receptor were measured.

The target of a further experiment is T3, 5-HT2C (Homo sapiens, UniProt P28335).
T3 sequence (P28335 33-458): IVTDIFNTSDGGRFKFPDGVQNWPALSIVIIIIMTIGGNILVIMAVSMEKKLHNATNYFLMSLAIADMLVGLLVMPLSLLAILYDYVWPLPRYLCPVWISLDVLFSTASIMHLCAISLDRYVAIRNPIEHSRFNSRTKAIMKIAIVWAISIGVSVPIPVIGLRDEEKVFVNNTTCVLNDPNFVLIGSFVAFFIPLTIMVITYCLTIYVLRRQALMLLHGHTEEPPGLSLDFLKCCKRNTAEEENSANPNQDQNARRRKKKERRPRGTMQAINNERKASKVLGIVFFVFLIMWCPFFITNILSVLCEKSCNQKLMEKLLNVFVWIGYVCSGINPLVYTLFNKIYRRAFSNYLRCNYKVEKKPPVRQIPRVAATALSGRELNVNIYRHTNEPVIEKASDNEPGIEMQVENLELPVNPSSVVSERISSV
The experiment is described as follows: 5-HT2C receptor inhibition/binding (Tables 1-3).

In the next experiment the target is 5-HT1E (Homo sapiens, UniProt P28566). The experiment is described as follows: 5-HT1E receptor inhibition (Table 1). It is filed as binding.
5-HT1E, sequence (P28566 whole entry, species assumed): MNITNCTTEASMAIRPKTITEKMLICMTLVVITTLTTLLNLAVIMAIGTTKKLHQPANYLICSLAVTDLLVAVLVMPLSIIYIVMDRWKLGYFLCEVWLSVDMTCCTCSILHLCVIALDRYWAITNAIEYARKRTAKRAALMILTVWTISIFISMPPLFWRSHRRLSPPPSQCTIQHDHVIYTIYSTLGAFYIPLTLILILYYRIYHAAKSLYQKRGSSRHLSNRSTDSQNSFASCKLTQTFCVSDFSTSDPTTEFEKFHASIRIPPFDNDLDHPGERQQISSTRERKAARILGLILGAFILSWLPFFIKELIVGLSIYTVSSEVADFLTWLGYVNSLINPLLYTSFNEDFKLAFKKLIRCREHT

pKi: −log10 of the molar value. Where a name gives a salt, the structure may show the parent alone.

5-HT6, sequence (P50406 whole entry, species assumed): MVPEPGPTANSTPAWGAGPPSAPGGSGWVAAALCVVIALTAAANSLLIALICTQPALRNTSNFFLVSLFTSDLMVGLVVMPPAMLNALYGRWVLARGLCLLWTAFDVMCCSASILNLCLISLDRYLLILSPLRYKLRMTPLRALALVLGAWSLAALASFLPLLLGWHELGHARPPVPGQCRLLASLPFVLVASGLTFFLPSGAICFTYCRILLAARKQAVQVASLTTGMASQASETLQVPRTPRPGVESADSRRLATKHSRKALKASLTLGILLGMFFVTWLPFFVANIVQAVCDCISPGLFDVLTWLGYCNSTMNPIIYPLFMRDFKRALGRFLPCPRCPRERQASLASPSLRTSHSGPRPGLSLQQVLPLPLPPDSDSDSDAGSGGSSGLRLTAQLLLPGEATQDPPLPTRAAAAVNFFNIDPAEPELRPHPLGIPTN

With `CC(=O)N1CCN(CCCCCC(=O)n2c3ccccc3c3ccccc32)CC1` [Example 2.11, 6-(4-Acetylpiperazin-1-yl)-1-(9H-carbazol-9-yl)hexan-1-one hydrochloride], the inhibition (as a rule, the change of the read-out against control, counted positive when it falls) at 10 µM at 5-HT6 was 24.5%; on 5-HT1A, 51.8%; in experiment [1], 72.1%; on 5-HT2C, 51.3%. The pKi (usually the Ki on a negative log10 scale, so that one unit is a factor of ten) in experiment [1] was 5.63.
On to `CC1CCCN(CCCCCC(=O)n2c3ccccc3c3ccccc32)C1` (stereo not drawn) [Example 2.5, 1-(9H-carbazol-9-yl)-6-(3-methylpiperidin-1-yl)hexan-1-one hydrochloride], for which the pKi in experiment [1] was 6.26; at 5-HT2C, 6.31. The inhibition at 10 µM in experiment [1] was 84.6%; on 5-HT2C it was 86.6%; on 5-HT1E, -15.3%.
As to `CN(CCCCC(=O)n1c2ccccc2c2ccccc21)Cc1ccccc1` [Example 2.18, 5-(Benzyl(methyl)amino)-1-(9H-carbazol-9-yl)pentan-1-one hydrochloride], the negative logarithm of the Ki (pKi) in experiment [1] is 6.29. The inhibition at 10 µM in experiment [1] was 83.1%; at 5-HT2C, 32.6%; on 5-HT1E, -22.5%.
On to `CC1CC(C)CN(CCCCCCn2c3ccccc3c3ccccc32)C1` (stereo not drawn) [Example 2.40, 9-(6-(3,5-Dimethylpiperidin-1-yl)hexyl)-9H-carbazole], for which, in experiment [1], the pKi was 5.80 and the inhibition at 10 µM is 57.7%. Moreover, the inhibition at 10 µM on 5-HT1E was -7.3%.
With `CC1CCCN(CCCCC(=O)n2c3ccccc3c3ccccc32)C1` (stereo not drawn) [Example 2.21, 1-(9H-carbazol-9-yl)-5-(3-methylpiperidin-1-yl)pentan-1-one hydrochloride], the pKi in experiment [1] was 6.05. Besides, the inhibition at 10 µM in experiment [1] is 69.4%; on 5-HT2C it was 50%; on 5-HT1E, -6%.
As to `CCCCN(C)CCCCC(=O)n1c2ccccc2c2ccccc21` [Example 2.17, 5-(Butyl(methyl)amino)-1-(9H-carbazol-9-yl)pentan-1-one hydrochloride], in experiment [1], the pKi is 5.89 and the inhibition at 10 µM is 50%. Also, at 5-HT1E, the inhibition at 10 µM worked out at 73.9%.
As to `O=C(CCCCCN1CCN(Cc2ccccc2)CC1)n1c2ccccc2c2ccccc21` [Example 2.13, 6-(4-Benzylpiperazin-1-yl)-1-(9H-carbazol-9-yl)hexan-1-one hydrochloride], the inhibition at 10 µM on 5-HT6 turned out to be 57.9%; against 5-HT1A, 76.8%; in experiment [1], 94.8%; on 5-HT2C, 72.3%. The pKi in experiment [1] was 6.90.
For `CC1CC(C)CN(CCCCCC(=O)n2c3ccccc3c3ccccc32)C1` (stereo not drawn) [Example 2.6, 1-(9H-carbazol-9-yl)-6-(3,5-dimethylpiperidin-1-yl)hexan-1-one hydrochloride], the pKi was 6.08 in experiment [1] and 6.34 on 5-HT2C. The values for the inhibition at 10 µM (in experiment [1]; on 5-HT2C; on 5-HT1E) were 77.2%, 80.6% and -21.9%, respectively.
On to `CN(CCCCCC(=O)n1c2ccccc2c2ccccc21)Cc1ccccc1` [Example 2.2, 6-(Benzyl)methyl)amino)-1-(9H-carbazol-9-yl)hexan-1-one hydrochloride], for which the inhibition at 10 µM turned out to be 92% in experiment [1], 54.6% on 5-HT2C and 10.2% against 5-HT1E. The same compound had a pKi at 5-HT2C of 5.88.
Turning to `O=C(CCCCN1CCCCCC1)n1c2ccccc2c2ccccc21` [Example 2.23, 5-(Azepan-1-yl)-1-(9H-carbazol-9-yl)pentan-1-one hydrochloride], the pKi in experiment [1] is 6.02; on 5-HT2C it was 5.96. The inhibition at 10 µM in experiment [1] was 77%; on 5-HT2C, 55%; against 5-HT1E, -11.7%.
With `O=C(CCCCN1CCN(Cc2ccccc2)CC1)n1c2ccccc2c2ccccc21` [Example 2.29, 5-(4-Benzylpiperazinyl)-1-(9H-carbazol-9-yl)pentan-1-one hydrochloride], the inhibition at 10 µM on 5-HT6 is 57.4%; against 5-HT1A it was 66.5%; in experiment [1], 92%; at 5-HT2C it was 38%. The negative logarithm of the Ki (pKi) in experiment [1] is 6.55.
Consider `c1ccc2c(c1)c1ccccc1n2CCCCCCN1CCCCCC1` [Example 2.41, 9-(6-(Azepan-1-yl)hexyl)-9H-carbazole], for which, in experiment [1], the pKi is 6.02 and the inhibition at 10 µM is 71.3%. In addition, the inhibition at 10 µM on 5-HT1E is 2.7%.
In the case of `CN1CCN(CCCCCC(=O)n2c3ccccc3c3ccccc32)CC1` [Example 2.12, 1-(9H-carbazol-9-yl)-6-(4-methylpiperazin-1-yl)hexan-1-one hydrochloride], the inhibition at 10 µM is 77.6% at 5-HT6, 5.5% at 5-HT1A, 50% in experiment [1] and 82.5% on 5-HT2C. Besides, in experiment [1], the pKi is 5.72.
In the case of `c1ccc2c(c1)c1ccccc1n2CCCCCCN1CCCC1` [Example 2.37, 9-(6-(Pyrrolidin-1-yl)hexyl)-9H-carbazole], the pKi in experiment [1] was 5.81. The inhibition at 10 µM in experiment [1] turned out to be 66.9%; at 5-HT1E it was 21.1%.
In the case of `CC1CCCN(CCCCCCn2c3ccccc3c3ccccc32)C1` (stereo not drawn) [Example 2.39, 9-(6-(3-Methylpiperidin-1-yl)hexyl)-9H-carbazole], in experiment [1], the pKi is 6.04. The inhibition at 10 µM in experiment [1] came to 75.6%; against 5-HT1E, 1.5%.
On to `COc1ccccc1N1CCN(CCCCCC(=O)n2c3ccccc3c3ccccc32)CC1` [Example 2.16, 1-(9H-carbazol-9-yl)-6-(4-(2-methoxyphenyl)piperazin-1-yl)hexan-1-one], for which the inhibition at 10 µM on 5-HT6 is 30.7%; at 5-HT1A, 108%; in experiment [1], 102%; on 5-HT2C it was 55.8%. In experiment [1], the pKi was 7.13.
Regarding `CC(=O)N1CCN(CCCCC(=O)n2c3ccccc3c3ccccc32)CC1` [Example 2.27, 5-(4-Acetylpiperazin-1-yl)-1-(9H-carbazol-9-yl)pentan-1-one hydrochloride], the inhibition at 10 µM at 5-HT6 came out at 13.8%; against 5-HT1A, 25.4%; in experiment [1], 64.6%; at 5-HT2C, 6.6%. Further, the pKi in experiment [1] was 5.97.
As to `COc1ccccc1N1CCN(CCCC(=O)n2c3ccccc3c3ccccc32)CC1` [Example 2.34, 1-(9H-carbazol-9-yl)-4-(4-(2-methoxyphenyl)piperazin-1-yl)butan-1-one], the inhibition at 10 µM came to 51.5% at 5-HT6, 104% on 5-HT1A, 97.7% in experiment [1] and 74.2% at 5-HT2C. Also, in experiment [1], the pKi is 7.48.
For the compound `CN(CCCCCCn1c2ccccc2c2ccccc21)Cc1ccccc1` [Example 2.36, N-Benzyl-6-(9H-carbazol-9-yl)-N-methylhexane-1-amine], in experiment [1], the pKi was 5.70 and the inhibition at 10 µM was 64%. For the same compound, the inhibition at 10 µM against 5-HT1E was -13.2%.
The like results for `CC1CCN(CCCCCCn2c3ccccc3c3ccccc32)CC1` [Example 2.38, 9-(6-(4-Methylpiperidin-1-yl)hexyl)-9H-carbazole] were, in that order, 6.22, 82.9% and -9.4%.
With `CC(=O)N1CCN(CCCCCCn2c3ccccc3c3ccccc32)CC1` [Example 2.45, 1-(4-(6-(9H-carbazol-9-yl)hexyl)piperazin-1-yl)ethanone], the inhibition at 10 µM at 5-HT6 worked out at 35%; on 5-HT1A it was 6.2%; in experiment [1] it was 63.1%. Moreover, the pKi in experiment [1] was 5.83.
